Measured values reported in patent US9234000B2, “Benzylamine derivatives as inhibitors of plasma kallikrein” (KalVista Pharmaceuticals Limited, priority 2011, dated 2016).
Converted amounts (≈) assume the structure as drawn.

What was measured:
[1] = Determination of thermodynamic solubility in phosphate buffer; type: physicochemical; details: ammonium phosphate buffer pH7.4, 290 mOsm, 37° C., nominal 1 mg/mL; for solubility at 1 h: pH 7.4, aqueous buffer, thermodynamic from solid, read-out: Solubility in PO4 buffer
Description: Determination of Thermodynamic Solubility in Phosphate Buffer
The thermodynamic solubility of compound was determined in Ammonium Phosphate Buffer (pH7.4, 290 mOsm). Compounds were made up at a nominal concentration of 1 mg/mL, vortexed then placed on a shaker for 1 h, 37° C. at approximately 950 rpm. Following incubation samples were transferred to eppendorf tubes and centrifuged at 15,000 g (r.c.f.) for 10 minutes at 37° C. The concentration of compound in the supernatant was determined by LC-MS/MS analysis using a calibration line prepared from a DMSO stock.

Human plasma kallikrein = Human plasma kallikrein (Homo sapiens (Human), UniProt P03952); test: Determination of the IC50 for plasma kallikrein; type: biochemical; details: 37° C., substrate H-DPro-Phe-Arg-AFC, read-out: IC50 (human PKal)
Chain of Human plasma kallikrein (P03952 391-638): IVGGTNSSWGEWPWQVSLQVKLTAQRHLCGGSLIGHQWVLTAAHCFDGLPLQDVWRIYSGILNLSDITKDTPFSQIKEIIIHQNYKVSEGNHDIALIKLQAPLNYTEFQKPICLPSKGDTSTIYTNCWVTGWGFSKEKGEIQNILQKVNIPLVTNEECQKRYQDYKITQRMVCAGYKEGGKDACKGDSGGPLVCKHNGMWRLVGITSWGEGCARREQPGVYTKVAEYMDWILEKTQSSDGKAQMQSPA
Chain of Human plasma kallikrein (P03952 20-390 partner): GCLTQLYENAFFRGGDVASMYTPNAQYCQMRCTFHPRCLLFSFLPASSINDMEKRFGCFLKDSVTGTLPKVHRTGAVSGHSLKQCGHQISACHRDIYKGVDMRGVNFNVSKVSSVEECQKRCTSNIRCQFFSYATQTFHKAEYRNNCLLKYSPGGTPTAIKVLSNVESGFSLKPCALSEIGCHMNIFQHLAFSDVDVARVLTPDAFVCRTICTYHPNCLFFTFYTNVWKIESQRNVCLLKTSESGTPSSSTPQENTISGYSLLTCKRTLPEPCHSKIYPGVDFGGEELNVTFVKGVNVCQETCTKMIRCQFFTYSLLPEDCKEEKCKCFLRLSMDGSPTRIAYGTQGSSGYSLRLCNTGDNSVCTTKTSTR
How it was run: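 Residual activity (initial rate, absorbance at 410 nm) gave the IC50. Reactions at 37° C combined human plasma kallikrein, substrate H-DPro-Phe-Arg-AFC and a range of inhibitor concentrations.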

Human KLK1 = Human KLK1 (Homo sapiens (Human), UniProt P06870); test: Determination of the IC50 for KLK1; type: biochemical; details: Human KLK1, 37° C., substrate H-DVal-Leu-Arg-AFC; Table 13
Chain of Human KLK1 (P06870 25-262): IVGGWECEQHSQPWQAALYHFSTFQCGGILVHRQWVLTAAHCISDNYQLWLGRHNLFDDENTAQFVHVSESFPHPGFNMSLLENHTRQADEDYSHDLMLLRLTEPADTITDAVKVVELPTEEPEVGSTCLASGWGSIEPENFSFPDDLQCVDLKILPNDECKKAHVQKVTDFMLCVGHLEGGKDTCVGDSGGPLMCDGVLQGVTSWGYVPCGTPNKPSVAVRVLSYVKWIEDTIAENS
How it was run: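 hKLK1 + H-DVal-Leu-Arg-AFC, 37° C, varied cpd conc. Initial rate by A410 change → residual activity → IC50.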

Row | Compound | solubility at 1 h [1] | IC50 (Human plasma kallikrein) | IC50 (Human KLK1) | solubility in PO4 buffer ([1]; 1 h)
1 | CCOc1ccc(C[C@@H](NC(=O)c2ccccc2)C(=O)N[C@@H](Cc2cscn2)C(=O)NCc2ccc(CN)cc2)cc1 [Example 152, N-[(R)-1-[(S)-1-(4-Aminomethyl-benzylcarbamoyl)-2-thiazol-4-yl-ethylcarbamoyl]-2-(4-ethoxy-phenyl)-ethyl]-benzamide] | 122 µg/mL (≈ 209 µM) | 0.023 µM | > 10 µM | –
2 | CCOc1ccc(C[C@@H](NC(=O)c2ccccc2)C(=O)N[C@@H](Cc2csc3ccccc23)C(=O)NCc2ccc(CN)cc2)cc1 [Example 153, N-[(R)-1-[(S)-1-(4-Aminomethyl-benzylcarbamoyl)-2-benzo[b]thiophen-3-yl-ethylcarbamoyl]-2-(4-ethoxy-phenyl)-ethyl]-benzamide] | 0.19 µg/mL (≈ 0.299 µM) | 0.01 µM | > 10 µM | –
3 | CCOc1ccc(C[C@@H](NC(=O)c2ccc(OC)cc2)C(=O)N[C@@H](Cc2cccnc2)C(=O)NCc2ccc(CN)cc2)cc1 [Example 160, N-[(R)-1-[(S)-1-(4-Aminomethyl-benzylcarbamoyl)-2-pyridin-3-yl-ethylcarbamoyl]-2-(4-ethoxy-phenyl)-ethyl]-4-methoxy-benzamide] | 20.4 µg/mL (≈ 33.5 µM) | 0.01 µM | > 10 µM | –
4 | CCOc1ccc(C[C@@H](NC(=O)c2ccccc2)C(=O)N[C@@H](Cc2ccccn2)C(=O)NCc2ccc(CN)cc2)cc1 [Example 140, N-[(R)-1-[(S)-1-(4-Aminomethyl-benzylcarbamoyl)-2-pyridin-2-yl-ethylcarbamoyl]-2-(4-ethoxy-phenyl)-ethyl]-benzamide] | 79.6 µg/mL (≈ 137 µM) | 0.045 µM | > 10 µM | –
5 | CCOc1ccc(C[C@@H](NC(=O)c2ccccc2)C(=O)N[C@@H](Cc2cccnc2)C(=O)NCc2ccc(CN)cc2)cc1 [Example 145, N-[(R)-1-[(S)-1-(4-Aminomethyl-benzylcarbamoyl)-2-pyridin-3-yl-ethylcarbamoyl]-2-(4-ethoxy-phenyl)-ethyl]-benzamide] | 68.9 µg/mL (≈ 119 µM) | 0.025 µM | > 10 µM | –
6 | CCOc1ccc(C[C@@H](NC(=O)c2ccccc2)C(=O)N[C@@H](Cc2ccsc2)C(=O)NCc2ccc(CN)cc2)cc1 [Example 151] | – | 0.009 µM | > 10 µM | 4.31 µg/mL (≈ 7.37 µM)
7 | CCOc1ccc(C[C@@H](NC(=O)c2sccc2C)C(=O)N[C@@H](Cc2ccccc2)C(=O)NCc2ccc(CN)cc2)cc1 [Example 119, 3-Methyl-thiophene-2-carboxylic acid [(R)-1-[(S)-1-(4-aminomethyl-benzylcarbamoyl)-2-phenyl-ethylcarbamoyl]-2-(4-ethoxy-phenyl)-ethyl]-amide] | 1.61 µg/mL (≈ 2.69 µM) | 0.015 µM | 6.1 µM | –
8 | CCOc1ccc(C[C@@H](NC(=O)c2sccc2C)C(=O)N[C@@H](Cc2cccnc2)C(=O)NCc2ccc(CN)cc2)cc1 [Example 181, 3-Methyl-thiophene-2-carboxylic acid [(R)-1-[(S)-1-(4-aminomethyl-benzylcarbamoyl)-2-pyridin-3-yl-ethylcarbamoyl]-2-(4-ethoxy-phenyl)-ethyl]-amide] | 61.6 µg/mL (≈ 103 µM) | 0.01 µM | > 10 µM | –
9 | CCOc1ccc(C[C@@H](NC(=O)c2ccccn2)C(=O)N[C@@H](Cc2ccccc2)C(=O)NCc2ccc(CN)cc2)cc1 [Example 81, Pyridine-2-carboxylic acid [(R)-1-[(S)-1-(4-aminomethyl-benzylcarbamoyl)-2-phenyl-ethylcarbamoyl]-2-(4-ethoxy-phenyl)-ethyl]-amide] | 1.3 µg/mL (≈ 2.24 µM) | 0.04 µM | > 10 µM | –
10 | CCOc1ccc(C[C@@H](NC(=O)c2sccc2N)C(=O)N[C@@H](Cc2ccccc2)C(=O)NCc2ccc(CN)cc2)cc1 [Example 125, 3-Amino-thiophene-2-carboxylic acid [(R)-1-[(S)-1-(4-aminomethyl-benzylcarbamoyl)-2-phenyl-ethylcarbamoyl]-2-(4-ethoxy-phenyl)-ethyl]-amide] | 43.6 µg/mL (≈ 72.7 µM) | 0.01 µM | 7 µM | –
11 | CCOc1ccc(C[C@@H](NC(=O)C2CCCCC2)C(=O)N[C@@H](Cc2ccccc2)C(=O)NCc2ccc(CN)cc2)cc1 [Example 75, Cyclohexanecarboxylic acid [(R)-1-[(S)-1-(4-aminomethyl-benzylcarbamoyl)-2-phenyl-ethylcarbamoyl]-2-(4-ethoxy-phenyl)-ethyl]-amide] | 1.06 µg/mL (≈ 1.81 µM) | 0.27 µM | > 10 µM | –
12 | CCOc1ccc(C[C@@H](NC(=O)c2sccc2NC(C)=O)C(=O)N[C@@H](Cc2ccccc2)C(=O)NCc2ccc(CN)cc2)cc1 [Example 179, 3-Acetylamino-thiophene-2-carboxylic acid-[(R)-1-[(S)-1-(4-aminomethyl-benzylcarbamoyl)-2-phenyl-ethylcarbamoyl]-2-(4-ethoxy-phenyl)-ethyl]-amide] | 17.7 µg/mL (≈ 27.6 µM) | 0.022 µM | 7.2 µM | –
13 | CCOc1ccc(C[C@@H](NC(=O)c2ccc(OC)cc2)C(=O)N[C@@H](Cc2ccccn2)C(=O)NCc2ccc(CN)cc2)cc1 [Example 158, N-[(R)-1-[(S)-1-(4-Aminomethyl-benzylcarbamoyl)-2-pyridin-2-yl-ethylcarbamoyl]-2-(4-ethoxy-phenyl)-ethyl]-4-methoxy-benzamide] | 70.6 µg/mL (≈ 116 µM) | 0.047 µM | > 10 µM | –
14 | CCOc1ccc(C[C@@H](NC(=O)c2ccc(Cl)cc2)C(=O)N[C@@H](Cc2cccnc2)C(=O)NCc2ccc(CN)cc2)cc1 [Example 173, N-[(R)-1-[(S)-1-(4-Aminomethyl-benzylcarbamoyl)-2-pyridin-3-yl-ethylcarbamoyl]-2-(4-ethoxy-phenyl)-ethyl]-4-chloro-benzamide] | 2.38 µg/mL (≈ 3.88 µM) | 0.213 µM | > 10 µM | –
15 | CCOc1ccc(C[C@@H](NC(=O)c2cccnc2)C(=O)N[C@@H](Cc2ccccc2)C(=O)NCc2ccc(CN)cc2)cc1 [Example 70, N-[(R)-1-[(S)-1-(4-Aminomethyl-benzylcarbamoyl)-2-phenyl-ethylcarbamoyl]-2-(4-ethoxy-phenyl)-ethyl]-nicotinamide] | 11.5 µg/mL (≈ 19.9 µM) | 0.126 µM | 7.5 µM | –
16 | CCOc1ccc(C[C@@H](NC(=O)c2ccccc2)C(=O)N[C@@H](Cc2ccc(F)c(F)c2)C(=O)NCc2ccc(CN)cc2)cc1 [Example 200, N—[(R)-1-[(S)-1-(4-Aminomethyl-benzylcarbamoyl)-2-(3,4-difluoro-phenyl)-ethylcarbamoyl]-2-(4-ethoxy-phenyl)-ethyl]-benzamide] | 0.22 µg/mL (≈ 0.358 µM) | 0.045 µM | 7.6 µM | –
17 | CCOc1ccc(C[C@@H](NC(=O)c2sccc2Cl)C(=O)N[C@@H](Cc2cccnc2)C(=O)NCc2ccc(CN)cc2)cc1 [Example 175, 3-Chloro-thiophene-2-carboxylic acid [(R)-1-[(S)-1-(4-aminomethyl-benzylcarbamoyl)-2-pyridin-3-yl-ethylcarbamoyl]-2-(4-ethoxy-phenyl)-ethyl]-amide] | 23.4 µg/mL (≈ 37.7 µM) | 0.003 µM | > 10 µM | –
18 | CCOc1ccc(C[C@@H](NC(=O)c2ccccc2)C(=O)N[C@@H](Cc2ccccc2)C(=O)NCc2ccc(CN)c(Cl)c2)cc1 [Example 155, N-[(R)-1-[(S)-1-(4-Aminomethyl-3-chloro-benzylcarbamoyl)-2-phenyl-ethylcarbamoyl]-2-(4-ethoxy-phenyl)-ethyl]-benzamide] | 0.44 µg/mL (≈ 0.718 µM) | 0.022 µM | > 10 µM | –
19 | CCOc1ccc(C[C@@H](NC(=O)c2ccccc2)C(=O)N[C@@H](Cc2ccc(Cl)c(Cl)c2)C(=O)NCc2ccc(CN)cc2)cc1 [Example 141, N-[(R)-1-[(S)-1-(4-Aminomethyl-benzylcarbamoyl)-2-(3,4-dichloro-phenyl)-ethylcarbamoyl]-2-(4-ethoxy-phenyl)-ethyl]-benzamide] | 0.15 µg/mL (≈ 0.232 µM) | 0.055 µM | > 10 µM | –
20 | CCOc1ccc(C[C@@H](NC(=O)c2ccsc2)C(=O)N[C@@H](Cc2ccccc2)C(=O)NCc2ccc(CN)cc2)cc1 [Example 72, Thiophene-3-carboxylic acid-[(R)-1-[(S)-1-(4-aminomethyl-benzylcarbamoyl)-2-phenyl-ethylcarbamoyl]-2-(4-ethoxy-phenyl)-ethyl]-amide] | 6.9 µg/mL (≈ 11.8 µM) | 0.046 µM | 9.1 µM | –
21 | CCOc1ccc(C[C@@H](NC(=O)c2ccccc2)C(=O)N[C@@H](Cc2ccccc2)C(=O)NCc2ccc(CN)c(F)c2)cc1 [Example 154, N-[(R)-1-[(S)-1-(4-Aminomethyl-3-fluoro-benzylcarbamoyl)-2-phenyl-ethylcarbamoyl]-2-(4-ethoxy-phenyl)-ethyl]-benzamide] | 3.14 µg/mL (≈ 5.26 µM) | 0.021 µM | > 10 µM | –
22 | CCOc1ccc(C[C@@H](NC(=O)c2ccc(C)cc2)C(=O)N[C@@H](Cc2ccccc2)C(=O)NCc2ccc(CN)cc2)cc1 [Example 92, N-[(R)-1-[(S)-1-(4-Aminomethyl-benzylcarbamoyl)-2-phenyl-ethylcarbamoyl]-2-(4-ethoxy-phenyl)-ethyl]-4-methyl-benzamide] | 0.2 µg/mL (≈ 0.337 µM) | – | – | –
